Patent publication US10189818B2, “5-(5-(2-(3-aminopropdoxy)-6-methoxyphenyl)-1H-pyrazol-3-ylamino)pyrazine-2-carbonitfile (S)-lactate monohydrate” (priority 2015, dated 2019)

Tests used:
[1] = Solubility screen of the salts in aqueous acid solution, HPLC; assay type: physicochemical; conditions: thermodynamic from solid, room temperature, one week
Method: Prepare an aqueous solution (approximately 0.1 M) of selected acid. Add solid 5-(5-(2-(3-aminopropoxy)-6-methoxyphenyl)-1H-pyrazol-3-ylamino)pyrazine-2-carbonitrile (20-26 mg). Agitate slurry at room temperature for one week. Measure the 5-(5-(2-(3-aminopropoxy)-6-methoxyphenyl)-1H-pyrazol-3-ylamino)pyrazine-2-carbonitrile concentration by HPLC. Aliquots (˜200 μL) are withdrawn from the suspensions through 0.45 micron Millex® PTFE filters. Dilute samples with mobile phase and analyze by HPLC. Analyze the samples with an Agilent 1100 HPLC (Instrument 800) with a Zorbax Bonus RP (75 mm×4.6 mm, 3.5 micron particle size) column, or equivalent. The mobile phase consists of 20% of a 0.1% TFA in acetonitrile mixture and 80% of a 0.1% TFA in water mixture. Instrument conditions are as follows: flow rate 1.0 mL/minute, wavelength of detection 290 nm, 3 μL injection volume, 10 minute run time, and column temperature of 30° C. Prepare a stock solution of 5-(5-(2-(3-aminopropoxy)-6-methoxyphenyl)-1H-pyrazol-3-ylamino)pyrazine-2-carbonitrile in 50/50 water/acetonitrile and dilute with 50/50 water/acetonitrile to give concentrations suitable for quantification of the solubility samples. Dilute the samples with 50/50 acetonitrile/water. Use a dilution factor of 200 for the samples. Measure the pH of each solution and analyze the solid residues by microscopy and XRPD (wet and dry) for crystallinity and crystal form.
Prepare a (S)-lactic acid aqueous solution (0.104 M, 1 mL). Add solid 5-(5-(2-(3-aminopropoxy)-6-methoxyphenyl)-1H-pyrazol-3-ylamino)pyrazine-2-carbonitrile (21.7 mg, 0.059 mmol). Agitate the slurry at room temperature for one week. Measure the 5-(5-(2-(3-aminopropoxy)-6-methoxyphenyl)-1H-pyrazol-3-ylamino)pyrazine-2-carbonitrile concentration by HPLC. Withdraw an aliquot (˜200 μL) from the suspension through 0.45 micron Millex® PTFE filters. Dilute the samples with mobile phase and analyze by HPLC. Analyze the samples with an Agilent 1100 HPLC (Instrument 800) with a Zorbax Bonus RP (75 mm×4.6 mm, 3.5 micron particle size) column, or equivalent. The mobile phase consists of 20% of a 0.1% TFA in acetonitrile mixture and 80% of a 0.1% TFA in water mixture. Instrument conditions are as follows: flow rate 1.0 mL/minute, wavelength of detection 290 nm, 3 μL injection volume, 10 minute run time, and column temperature of 30° C. Prepare a stock solution of 5-(5-(2-(3-aminopropoxy)-6-methoxyphenyl)-1H-pyrazol-3-ylamino)pyrazine-2-carbonitrile in 50/50 water/acetonitrile and dilute with 50/50 water/acetonitrile to give concentrations suitable for quantification of the solubility samples. Dilute the samples with 50/50 acetonitrile/water. Use a dilution factor of 200 for the samples. […]

[2] = Stability comparison of the salt forms (Table 2); assay type: physicochemical; conditions: salt form comparison
[3] = Pharmacokinetic comparison after 1-hour IV infusion, plasma concentrations by LC-MS/MS; assay type: in vivo, male Sprague-Dawley rats; conditions: rat; for concentration at 0.25 h / concentration at 0.5 h / concentration at 1 h / concentration at 1.25 h / concentration at 1.5 h / concentration at 2 h / concentration at 4 h / concentration at 8 h / concentration at 24 h: male, Sprague-Dawley, single 10 mg/kg 1-hour intravenous infusion; for concentration at 0.25 h: 0.25 hours after start of infusion; for concentration at 0.5 h: 0.5 hours after start of infusion; for concentration at 1 h: 1 hour after start of infusion; for concentration at 1.25 h: 1.25 hours after start of infusion; for concentration at 1.5 h: 1.5 hours after start of infusion; for concentration at 2 h: 2 hours after start of infusion; for concentration at 4 h: 4 hours after start of infusion; for concentration at 8 h: 8 hours after start of infusion; for concentration at 24 h: 24 hours after start of infusion; for Difference in blood plasma levels between the two salt forms (2 sample t-test, pooled error): 10 mg/kg IV infusion for 1 hour, mesylate formulated in Captisol, (S)-lactate in trehalose
Method: Evaluate the noncompartmental pharmacokinetic parameters of the methanesulfonic acid monohydrate and (S)-lactate monohydrate salts of 5-(5-(2-(3-aminopropoxy)-6-methoxyphenyl)-1H-pyrazol-3-ylamino)pyrazine-2-carbonitrile after intravenous (IV) infusion of 10 mg/kg of the methanesulfonic acid monohydrate salt (10 mg/kg, formulated in Captisol®) or of the (S)-lactate monohydrate salt (formulated in trehalose) into the femoral vein cannula of fed male Sprague-Dawley rats for 1 hour. Collect blood samples over 24 hours from 6 animals/group. Collect blood samples into tubes containing K3EDTA at 0.25, 0.5, 1, 1.25, 1.5, 2, 4, 8, and 24 hours after the start of infusion. Centrifuge the samples to obtain plasma, and freeze until analyzed. Determine plasma concentrations using a validated LC-MS/MS assay.
Dispense WFI equivalent to approximately 80% of the final batch volume. Warm the WFI to 40° C.±3° C. and transfer to the manufacturing vessel. Weigh the required amount of active pharmaceutical ingredient and after ensuring that the WFI temperature is still within the specified range, quantitatively transfer the active pharmaceutical ingredient into the manufacturing vessel while stirring. Stir until the active pharmaceutical ingredient has dissolved yielding a clear yellow solution, stirring for no longer than 30 minutes. Add trehalose and polysorbate 80 to the manufacturing vessel. Stir until dissolved. Measure the pH of the solution and adjust to pH 4.4±0.3 with lactic acid (Note: If using lactic acid 88%-92% solution, titrate slowly and cautiously as small quantities can produce large changes in pH, or prepare a 10% solution of lactic acid for pH adjustment). If necessary, and only if the pH drops below the lower limit during adjustment, add 10% NaOH solution to bring the pH back into range. Add WFI to the manufacturing vessel to bring the solution to the final batch weight which is calculated based on the desired batch volume and the density of the solution. Measure the pH of the solution and adjust, if necessary, to pH 4.4±0.3 with lactic acid or 10% NaOH. The solution is filtered through a sterile 0.22 micron PVDF membrane (Millipore Durapore®) into a sterile receiving vessel. Fill the drug product into sterile vials. Upon completion of filling, stopper and seal vials. If not dosed within about 4 hours, store all vials at −20° C.
Dispense WFI equivalent to approximately 80% of the final batch volume into the manufacturing vessel. Weigh the required amount of Captisol® and transfer to the manufacturing vessel. Stir until dissolved. Weigh the required amount of active pharmaceutical ingredient and form a slurry by adding WFI to the active pharmaceutical ingredient with swirling until wetted. Transfer the slurry to the stirring Captisol® solution. Rinse the active pharmaceutical ingredient with WFI (3×) and add the rinses to the stirring bulk solution. Stir until the active pharmaceutical ingredient has been dispersed. Stir for no longer than 60 minutes. Some particles may be visible in the manufacturing vessel after stirring for 60 minutes. Maintain the pH of the solution between 4.0-6.0. If the pH drops below the lower limit, 10% NaOH solution may be added to bring the pH into range. Add WFI to the manufacturing vessel to bring the solution to the final batch weight which is calculated based on the desired batch volume and the density of the solution. Measure the pH of the solution and adjust, if necessary, to pH 4.0-6.0 with 10% NaOH. Filter the solution through a sterile 0.22 micron PVDF membrane (Millipore Durapore®) into a sterile receiving vessel. Fill the drug product into sterile vials. Upon completion of filling, stopper and seal the vials. If not dosed within about 4 hours, store all vials at −20° C.

[4] = aqueous buffer, water solubility comparison, slurry in approx. 0.1 M aqueous acid

COc1cccc(OCCCN)c1-c1cc(Nc2cnc(C#N)cn2)n[nH]1.C[C@H](O)C(=O)O [(S)-Lactate Monohydrate, 5-(5-(2-(3-Aminopropoxy)-6-methoxyphenyl)-1H-pyrazol-3-ylamino)pyrazine-2-carbonitrile (S)-lactate Monohydrate]
solubility at 1 week ([1]; aqueous (S)-lactic acid solution, pH 2.46, aqueous buffer, in water, measured at a pH of 2.46, 0.104 M (S)-lactic acid): > 20000 µg/mL | solubility at 1 week ([1]; aqueous solution of the selected acid, aqueous buffer, water solubility comparison, slurry in approx. 0.1 M aqueous acid): > 20000 µg/mL | Stability [2]: Satisfactory | concentration at 0.25 h ([3]; plasma): 1110 ng/mL | concentration at 0.5 h ([3]; plasma): 1180 ng/mL | concentration at 1 h ([3]; plasma): 1140 ng/mL | concentration at 1.25 h ([3]; plasma): 405 ng/mL | concentration at 1.5 h ([3]; plasma): 283 ng/mL | concentration at 2 h ([3]; plasma): 217 ng/mL | concentration at 4 h ([3]; plasma): 73.8 ng/mL | concentration at 8 h ([3]; plasma): 28.6 ng/mL | concentration at 24 h ([3]; plasma): 2.6 ng/mL | Difference in blood plasma levels between the two salt forms (2 sample t-test, pooled error) [3]: no significant difference

COc1cccc(OCCCN)c1-c1cc(Nc2cnc(C#N)cn2)n[nH]1.Cl.Cl [Di-HCl, 5-(5-(2-(3-aminopropoxy)-6-methoxyphenyl)-1H-pyrazol-3-ylamino)pyrazine-2-carbonitrile di-HCl salt]
solubility at 1 week [1, 4]: 107 µg/mL | Stability [2]: Unstable

COc1cccc(OCCCN)c1-c1cc(Nc2cnc(C#N)cn2)n[nH]1.CS(=O)(=O)O.O [Methanesulfonic acid Monohydrate, 5-(5-(2-(3-aminopropoxy)-6-methoxyphenyl)-1H-pyrazol-3-ylamino)pyrazine-2-carbonitrile methanesulfonic acid monohydrate salt]
solubility at 1 week [1, 4]: 6630 µg/mL | Stability [2]: Satisfactory | concentration at 0.25 h ([3]; in vivo): 1060 ng/mL | concentration at 0.5 h ([3]; in vivo): 1100 ng/mL | concentration at 1 h ([3]; in vivo): 930 ng/mL | concentration at 1.25 h ([3]; in vivo): 319 ng/mL | concentration at 1.5 h ([3]; in vivo): 249 ng/mL | concentration at 2 h ([3]; in vivo): 178 ng/mL | concentration at 4 h ([3]; in vivo): 67.5 ng/mL | concentration at 8 h ([3]; in vivo): 30.3 ng/mL | concentration at 24 h ([3]; in vivo): 3 ng/mL | Difference in blood plasma levels between the two salt forms (2 sample t-test, pooled error) [3]: no significant difference
